The nature of data set [1]: Phase 1 trial, rivastigmine and trospium administrations: rivastigmine blood serum concentration time profile (FIG. 2B). The conditions noted are these: 6 mg rivastigmine fed state one hour after 20 mg trospium fasting (subject 1008) versus simultaneous fasting (1001, 1002, 1005). The procedure: Patients 1001, 1002, and 1005 were administered trospium and rivastigmine simultaneously in a fasting state. Subject 1008 was administered trospium and rivastigmine in fasting and fed states, respectively.

Data set [2] in a line: Phase 1 trial, rivastigmine and glycopyrrolate administrations: rivastigmine blood serum concentration time profile (FIG. 2A). The source says:
The serum rivastigmine levels were obtained over the course of twelve hours post-administration.

Each structure is given as a SMILES string.

For the molecule `CCN(C)C(=O)Oc1cccc([C@H](C)N(C)C)c1` [rivastigmine], in data set [1], the “peak rivastigmine blood serum level, taken with food” value is recorded as “attenuated peak rivastigmine levels”. Besides, the “rivastigmine blood serum concentration (time profile)” value in data set [2] (patient 1006, co-formulated drug delivery element with glycopyrrolate taken in a fasting state, 12 hours post dose) worked out at 10 ng/mL. The “adverse effects, separate versus simultaneous administration” value in data set [2] (patients 1010 and 1011, glycopyrrolate fasted, rivastigmine with food one hour later) is “reduced adverse effects, particularly nausea”. For the same molecule, the “peak rivastigmine serum concentration, separate versus simultaneous administration” value in data set [2] (patients 1010 and 1011, glycopyrrolate fasted, rivastigmine with food one hour later, compared with patients 1003, 1004 coadministered fasted) is “delayed peak serum concentration associated with lower peak rivastigmine levels”.

The values above are taken from patent US12109202B2, “Fixed dose combination of cholinesterase inhibitor and a quaternary ammonium antimuscarinic agent to treat neurodegenerative cognitive disorders” (priority 2021, dated 2024).
